{"source": "patent US9353075B2", "about": "“Disubstituted beta-lactones as inhibitors of N-acylethanolamine acid amidase (NAAA)” (The Regents of the University of California, priority 2011, dated 2016)", "key": {"UVB-induced inflammation": {"system": "UVB-induced inflammation", "experiment": "UV-B irradiation model in rats, plantar test", "format": "in vivo, rat", "procedure": "Male Sprague Dawley rats (150-175 g, Charles River, Calco, Italy) were anaesthetized with a mixture of Tiletamine (15 mg/Kg) and Zolazepam (15 mg/Kg) administered in a single intra-peritoneal injection. Rats were then placed on their backs and shrouded in a UV opaque material with only the relevant surface of the plantar right hind paw exposed, perpendicular to the narrowband UVB light source situated above the level of the limb. The UVB source used for all experiments consisted of a bank of four TL01 fluorescent tubes (Philips, UK, λmax=312 nm) spaced 2.5 cm apart producing an even field of irradiation. The irradiance produced by the bulbs during each irradiation was determinate at the distance of the limb from the light source using a calibrate meter (I[…] with SEL240/UVB-1/TD filter, ABLE Instruments & Controls Ltd, UK). From this, the doses of UVB to which the rats were exposed were calculated. After plantar irradiation, nociceptive withdrawal responses to both thermal and mechanical stimuli were tested. Heat hypersensitivity was assessed using the rat plantar test equipment (Ugo Basile, Italy) following the method described by Hargreaves et al. (1988). […] Uninjured paw was always assessed first. […] The withdrawal threshold is calculated as the average of three consecutive tests with at list 5 minutes between each test. […]"}, "h-NAAA": {"biological_target": "h-NAAA (Homo sapiens (Human), UniProt Q02083)", "sequence (Q02083 29-359)": "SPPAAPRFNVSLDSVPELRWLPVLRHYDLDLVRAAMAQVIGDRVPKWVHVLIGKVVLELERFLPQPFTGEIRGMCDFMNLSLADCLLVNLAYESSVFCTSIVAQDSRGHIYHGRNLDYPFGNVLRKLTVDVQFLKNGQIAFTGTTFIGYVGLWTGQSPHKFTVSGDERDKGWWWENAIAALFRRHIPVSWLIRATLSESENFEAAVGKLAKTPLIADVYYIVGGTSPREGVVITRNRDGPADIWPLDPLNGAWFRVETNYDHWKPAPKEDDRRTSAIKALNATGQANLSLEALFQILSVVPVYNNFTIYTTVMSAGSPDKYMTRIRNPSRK", "experiment": "UPLC/MS h-NAAA assay", "format": "biochemical", "procedure": "NAAA protein preparation (10 μg) was pre-incubated with various concentrations of test compound or vehicle control in 100 mM NaH2PO4, 100 mM Tri Sodium Citrate Dehydrate, 0.1% Triton-X 100, 3 mM DTT, pH 4.5 for 30 min at 37° C. Duplicate samples were then incubated with 50 μM C17:1 10-cis-heptadecenoylethanolamide (Avanti Polar Lipids, Alabaster, Ala.—USA) at 37° C. for 30 minutes. The reaction was terminated by the addition of 0.2 mL of cold methanol containing 1 nmol of heptadecanoic acid (NuChek Prep, Elysian, Minn.—USA) as internal standard. Samples were then analyzed by UPLC/MS. Heptadecenoic and heptadecanoic acids were eluted on an Acquity UPLC BEH C18 column (50 mm length, 2.1 mm i.d., 1.7 μm pore size, Waters) isocratically at 0.5 mL/min for 1.5 min with a solvent mixture of 95% methanol and 5% water, both containing 0.25% Acetic Acid and 5 mM Ammonium Acetate. The column temperature was 40° C. Electrospray ionization was in the negative mode, capillary voltage was 2.7 kV, cone voltage was 45 V, extractor voltage was 3 V. The source temperature was 150° C. with a desolvation temperature of 400° C. N2 was used as drying gas at a cone flow of 100 L/hour and a desolvation flow of […]. The [M−H]-ion was monitored in the selected-ion monitoring mode (m/z values: heptadecenoic acid 267.37, heptadecanoic acid 269.37). Calibration curves were generated using commercial heptadecenoic acid (NuCheck Prep) Inhibition of NAAA activity was calculated as reduction of heptadecenoic acid in the samples compared to vehicle controls. IC50 values were calculated by non-linear regression analysis of log [concentration]/inhibition curves using GraphPad Prism 5 (GraphPad Software Inc., CA—USA) applying a standard slope curve fitting."}, "[1]": {"system": "IL-4, IL-5, IFN-g, and IgE blood levels", "experiment": "Immune response in DNFB-induced dermatitis", "format": "in vivo, mouse", "details": "mice, topical", "procedure": "The methods include the following. Dermatitis in mice was induced with 2-4 Dinitrofluorobenzene (DNFB) as previously described. IL-4, IL-5, IFN-g, and IgE blood levels were determined by immunoassays. The effect of compound 6 was tested using a single treatment protocol."}, "r-NAAA": {"biological_target": "r-NAAA (Rattus norvegicus (Rat), UniProt Q5KTC7)", "sequence (Q5KTC7 34-362)": "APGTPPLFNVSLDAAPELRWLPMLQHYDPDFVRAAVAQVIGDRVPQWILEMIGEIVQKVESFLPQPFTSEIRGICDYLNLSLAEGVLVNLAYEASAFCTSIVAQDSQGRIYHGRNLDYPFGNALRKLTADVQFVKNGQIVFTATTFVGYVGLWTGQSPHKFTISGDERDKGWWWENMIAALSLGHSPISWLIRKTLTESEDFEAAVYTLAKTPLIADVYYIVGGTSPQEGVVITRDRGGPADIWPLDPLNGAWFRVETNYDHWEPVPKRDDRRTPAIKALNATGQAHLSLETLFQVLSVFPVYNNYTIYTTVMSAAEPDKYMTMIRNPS", "experiment": "r-NAAA inhibition, rat lung lysosomal NAAA preparation, UPLC/MS", "format": "biochemical", "how_it_was_run": "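Substrate was 50 μM heptadecenoylethanolamide, incubated 30 min at 37 °C after a 30 min compound preincubation at pH 4.5 with 1% Triton-X and 3 mM DTT. The enzyme source was rat lung lysosomal preparation. IC50 came from curve fitting of reduced heptadecenoic acid product, measured by negative-mode UPLC/MS versus vehicle.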"}}}
{"smiles": "C[C@@H]1OC(=O)[C@@H]1NC(=O)OCCCCCc1ccccc1", "note": "[Example 6, 5-phenylpentyl-[(2S,3R)-2-methyl-4-oxooxetan-3-yl]-carbamate]", "values": [{"measurement": "Thermal hyperalgesia induced by irradiation with 250 mJ/cm^2 of UVB", "setting": "UVB-induced inflammation; 10 and 30% w/w, vs vehicle", "value": "significantly reduced"}, {"measurement": "UVB-induced inflammation", "setting": "UVB-induced inflammation; topical suspension in vaseline oil plus 5% lauric acid", "value": "dose-dependently reduced the UVB-induced inflammation"}, {"measurement": "IC50", "setting": "h-NAAA", "value": 7, "unit": "nM"}, {"measurement": "Dose range of full efficacy on immune response, single administration", "setting": "[1]", "value": "1 to 30", "unit": "%"}, {"measurement": "Effect on immune response compared with steroids", "setting": "[1]", "value": "superior to that of steroids"}, {"measurement": "Immunological responses in DNFB dermatitis", "setting": "[1]", "value": "normalizes compromised immunological responses"}, {"measurement": "DNFB-induced IFN-γ decrease", "setting": "[1]; single dosing", "value": "reverses DNFB-induced IFN-γ decrease"}, {"measurement": "DNFB-induced IL-4 increase", "setting": "[1]; single dosing", "value": "reverses DNFB-induced IL-4 increase"}, {"measurement": "DNFB-induced IL-5 increase", "setting": "[1]; single dosing", "value": "reverses DNFB-induced IL-5 increase"}, {"measurement": "DNFB-induced IgE increase", "setting": "[1]; single dosing", "value": "reverses DNFB-induced IgE increase"}, {"measurement": "IC50", "setting": "r-NAAA", "value": 50, "unit": "nM"}]}
